Test results: publication PMC7156458, “Synthetic biology based construction of biological activity-related library of fungal decalin-containing diterpenoid pyrones” (Nature Communications, 2020)

Target: Aβ42 (Homo sapiens, UniProt P05067)
Test: Th-T (thioflavin-T) assay of Aβ42 aggregation
Format: biochemical
Conditions: for Th-T fluorescence of Aβ42 with compound, mean of three wells (Fig. 7a source data): concentration 50, unit not given

Chain of Aβ42 (P05067 672-713): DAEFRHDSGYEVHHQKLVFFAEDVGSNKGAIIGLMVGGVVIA

Compound: C=C1CCC2C(C)(CCC=C(C)C)C(O)CCC2(C)C1Cc1c(OC)oc(CO)c(C)c1=O (stereo not drawn) [Compound 12]
- Th-T fluorescence of Aβ42 with compound, mean of three wells (Fig. 7a source data) (time-course reading M143): 1.6964
- Th-T fluorescence of Aβ42 with compound, mean of three wells (Fig. 7a source data) (time-course reading M144): 1.681
- Th-T fluorescence of Aβ42 with compound, mean of three wells (Fig. 7a source data) (time-course reading M145): 1.696
- Th-T fluorescence of Aβ42 (sheet Fig. 7a), mean of three wells (head suffix _10 (concentration 10), reading M63): 3.408
- Th-T fluorescence of Aβ42 (sheet Fig. 7a), mean of three wells (head suffix _10 (concentration 10), reading M64): 3.415
- Th-T fluorescence of Aβ42 (sheet Fig. 7a), mean of three wells (head suffix _10 (concentration 10), reading M65): 3.397
- Th-T fluorescence of Aβ42 (sheet Fig. 7a), mean of three wells (head suffix _10 (concentration 10), reading M66): 3.3918
- Th-T fluorescence of Aβ42 (sheet Fig. 7a), mean of three wells (head suffix _10 (concentration 10), reading M67): 3.364
- Th-T fluorescence of Aβ42 (sheet Fig. 7a), mean of three wells (head suffix _10 (concentration 10), reading M68): 3.364
- Th-T fluorescence of Aβ42 (sheet Fig. 7a), mean of three wells (head suffix _10 (concentration 10), reading M69): 3.344
- Th-T fluorescence of Aβ42 (sheet Fig. 7a), mean of three wells (head suffix _10 (concentration 10), reading M70): 3.357
- Th-T fluorescence of Aβ42 (sheet Fig. 7a), mean of three wells (head suffix _10 (concentration 10), reading M71): 3.333
- Th-T fluorescence of Aβ42 (sheet Fig. 7a), mean of three wells (head suffix _10 (concentration 10), reading M72): 3.332
- Th-T fluorescence of Aβ42 (sheet Fig. 7a), mean of three wells (head suffix _10 (concentration 10), reading M73): 3.302
- Th-T fluorescence of Aβ42 (sheet Fig. 7a), mean of three wells (head suffix _10 (concentration 10), reading M74): 3.307
- Th-T fluorescence of Aβ42 (sheet Fig. 7a), mean of three wells (head suffix _10 (concentration 10), reading M75): 3.295
- Th-T fluorescence of Aβ42 (sheet Fig. 7a), mean of three wells (head suffix _10 (concentration 10), reading M76): 3.265
- Th-T fluorescence of Aβ42 (sheet Fig. 7a), mean of three wells (head suffix _10 (concentration 10), reading M77): 3.239
- Th-T fluorescence of Aβ42 (sheet Fig. 7a), mean of three wells (head suffix _10 (concentration 10), reading M78): 3.245
- Th-T fluorescence of Aβ42 (sheet Fig. 7a), mean of three wells (head suffix _10 (concentration 10), reading M79): 3.216
- Th-T fluorescence of Aβ42 (sheet Fig. 7a), mean of three wells (head suffix _10 (concentration 10), reading M80): 3.214
- Th-T fluorescence of Aβ42 (sheet Fig. 7a), mean of three wells (head suffix _10 (concentration 10), reading M81): 3.199
- Th-T fluorescence of Aβ42 (sheet Fig. 7a), mean of three wells (head suffix _10 (concentration 10), reading M82): 3.17
- Th-T fluorescence of Aβ42 (sheet Fig. 7a), mean of three wells (head suffix _10 (concentration 10), reading M83): 3.151
- Th-T fluorescence of Aβ42 (sheet Fig. 7a), mean of three wells (head suffix _10 (concentration 10), reading M84): 3.157
- Th-T fluorescence of Aβ42 (sheet Fig. 7a), mean of three wells (head suffix _20 (concentration 20), reading M63): 2.111
- Th-T fluorescence of Aβ42 (sheet Fig. 7a), mean of three wells (head suffix _20 (concentration 20), reading M64): 2.103
- Th-T fluorescence of Aβ42 (sheet Fig. 7a), mean of three wells (head suffix _20 (concentration 20), reading M65): 2.121
- Th-T fluorescence of Aβ42 (sheet Fig. 7a), mean of three wells (head suffix _20 (concentration 20), reading M66): 2.113
- Th-T fluorescence of Aβ42 (sheet Fig. 7a), mean of three wells (head suffix _20 (concentration 20), reading M67): 2.119
- Th-T fluorescence of Aβ42 (sheet Fig. 7a), mean of three wells (head suffix _20 (concentration 20), reading M68): 2.108
- Th-T fluorescence of Aβ42 (sheet Fig. 7a), mean of three wells (head suffix _20 (concentration 20), reading M69): 2.09
- Th-T fluorescence of Aβ42 (sheet Fig. 7a), mean of three wells (head suffix _20 (concentration 20), reading M70): 2.126
- Th-T fluorescence of Aβ42 (sheet Fig. 7a), mean of three wells (head suffix _20 (concentration 20), reading M71): 2.116
- Th-T fluorescence of Aβ42 (sheet Fig. 7a), mean of three wells (head suffix _20 (concentration 20), reading M72): 2.113
- Th-T fluorescence of Aβ42 (sheet Fig. 7a), mean of three wells (head suffix _20 (concentration 20), reading M73): 2.112
- Th-T fluorescence of Aβ42 (sheet Fig. 7a), mean of three wells (head suffix _20 (concentration 20), reading M74): 2.11
- Th-T fluorescence of Aβ42 (sheet Fig. 7a), mean of three wells (head suffix _20 (concentration 20), reading M75): 2.104
- Th-T fluorescence of Aβ42 (sheet Fig. 7a), mean of three wells (head suffix _20 (concentration 20), reading M76): 2.0857
- Th-T fluorescence of Aβ42 (sheet Fig. 7a), mean of three wells (head suffix _20 (concentration 20), reading M77): 2.081
- Th-T fluorescence of Aβ42 (sheet Fig. 7a), mean of three wells (head suffix _20 (concentration 20), reading M78): 2.114
- Th-T fluorescence of Aβ42 (sheet Fig. 7a), mean of three wells (head suffix _20 (concentration 20), reading M79): 2.113
- Th-T fluorescence of Aβ42 (sheet Fig. 7a), mean of three wells (head suffix _20 (concentration 20), reading M80): 2.11
- Th-T fluorescence of Aβ42 (sheet Fig. 7a), mean of three wells (head suffix _20 (concentration 20), reading M81): 2.089
- Th-T fluorescence of Aβ42 (sheet Fig. 7a), mean of three wells (head suffix _20 (concentration 20), reading M82): 2.121
- Th-T fluorescence of Aβ42 (sheet Fig. 7a), mean of three wells (head suffix _20 (concentration 20), reading M83): 2.116
- Th-T fluorescence of Aβ42 (sheet Fig. 7a), mean of three wells (head suffix _20 (concentration 20), reading M84): 2.082
- Th-T fluorescence of Aβ42 (sheet Fig. 7a), mean of three wells (head suffix _50 (concentration 50), reading M63): 1.459
- Th-T fluorescence of Aβ42 (sheet Fig. 7a), mean of three wells (head suffix _50 (concentration 50), reading M64): 1.462
- Th-T fluorescence of Aβ42 (sheet Fig. 7a), mean of three wells (head suffix _50 (concentration 50), reading M65): 1.426
- Th-T fluorescence of Aβ42 (sheet Fig. 7a), mean of three wells (head suffix _50 (concentration 50), reading M66): 1.435
- Th-T fluorescence of Aβ42 (sheet Fig. 7a), mean of three wells (head suffix _50 (concentration 50), reading M67): 1.458
- Th-T fluorescence of Aβ42 (sheet Fig. 7a), mean of three wells (head suffix _50 (concentration 50), reading M68): 1.453
- Th-T fluorescence of Aβ42 (sheet Fig. 7a), mean of three wells (head suffix _50 (concentration 50), reading M69): 1.447
- Th-T fluorescence of Aβ42 (sheet Fig. 7a), mean of three wells (head suffix _50 (concentration 50), reading M70): 1.435
- Th-T fluorescence of Aβ42 (sheet Fig. 7a), mean of three wells (head suffix _50 (concentration 50), reading M71): 1.445
- Th-T fluorescence of Aβ42 (sheet Fig. 7a), mean of three wells (head suffix _50 (concentration 50), reading M72): 1.442
